Positions of bridges follow the written chain, without caps; N, C: chain ends. Non-standard residues stand in square brackets, D forms with d. Residues, ends and D or L forms follow the SMILES beside them. No end group written: not given here. pGlu = O=C1CC[C@@H](C(=O)O)N1

Data on 5 compounds can be found in US6716812B1, “Modulation of sperm function” (priority 1998, dated 2004).

For assay [1], the system named is capacitated mouse sperm. The experiment in a line: Spontaneous acrosome loss in capacitated suspensions (CTC). Format: cell-based. The conditions noted are these: for incidence of spontaneously acrosome-reacted sperm vs untreated control: 40 min after 90 min capacitation. The procedure: (§1) Chlortetracycline (CTC) fluorescence analysis was carried out as described by Green et al. (1994). Assessments were made on an Olympus BX40 microscope equipped with phase contrast and BX-FLA epifluorescence optics using the wide blue-violet excitation cube (U-MWBV). The excitation beam passed through a 400-440 nm band pass filter and CTC fluorescence was observed through a DM 455 dichroic mirror. In each sample, at least 100 sperm were classified as expressing one of three patterns: F, with fluorescence over the entire head, a pattern characteristic of uncapacitated (non-fertilizing), acrosome-intact sperm; B, with a fluorescence-free band in the postacrosomal region, a pattern characteristic of capacitated (potentially fertilizing), acrosome-intact sperm; AR, with dull or absent fluorescence over the whole head, a pattern characteristic of acrosome-reacted (non-fertilizing) sperm.
Sperm suspensions were prepared as described earlier for CTC analysis and incubated for 90 min to allow capacitation. Suspensions were then filtered to remove non-motile cells and a sample was stained with CTC (Con-90). The remaining suspension was aliquotted out to different treatment groups and treated for 40 min with nothing (Con-130), 100 nM FPP (positive control), 100 nM FPP+100 ng/ml pertussis toxin (F+PT, negative control), 5 ng/ml salmon calcitonin (CT) and 5 ng/ml salmon calcitonin+100 ng/ml pertussis toxin (CT+PT); (n=3).

Assay [2] deals with mouse sperm. The experiment in a line: Subjective motility evaluation. In kind it is cell-based. The following applies: judged subjectively; concentrations as in the CTC experiments. An excerpt: In all experiments, a drop of each suspension was examined briefly for subjective motility evaluation.
The test system of assay [3] is human sperm. The following applies: Green et al., 1996; cited from earlier work.
The subject of assay [4] is uncapacitated mouse sperm. The experiment in a line: Chlortetracycline (CTC) fluorescence analysis of capacitation in uncapacitated sperm. Format: cell-based. The conditions noted are these: 40 min incubation. The procedure:
The contents of cauda epididymides (3-4 cauda per ml of medium) from mature TO male mice (Harlan Olac, Bicester, U.K.) were released into 2 ml modified Tyrode's medium (Fraser, 1993) in 30 mm sterile culture dishes and allowed to disperse for 5 min. For studies on uncapacitated sperm, suspensions were then filtered through short columns of Sephadex G-25 (medium grade; Pharmacia, Uppsala, Sweden) to remove non-motile cells. Filtered suspensions were aliquotted out to different treatment groups, treated with nothing (control), calcitonin or FPP (as a positive control) and then incubated for 40 min. Salmon calcitonin was used at a final concentration of 5 ng/ml, human calcitonin was used at 200 ng/ml and 20 ng/ml and FPP was used at 100 nM. These short-term incubations were carried out in 0.5 ml plastic microcentrifuge tubes at 37° C. in an atmosphere of 5% CO2, 5% O2, 90% N2. […] Three replicate experiments using uncapacitated sperm were carried out using salmon calcitonin and the higher concentration of human calcitonin (n=3); for the lower concentration of the human hormone, n=2.
as §1

For assay [5], the system named is human sperm. The conditions noted are these: some (higher) concentrations; Gnessi et al, 1984; cited from earlier work.
The test system of assay [6] is uncapacitated mouse sperm suspensions. Briefly: In vitro fertilization analysis. Format: cell-based. The conditions noted are these: 40 min preincubation, 65 min coincubation. The procedure:
The contents of the cauda epididymides from 2 mature TO male mice were released into 2 ml modified Tyrode's medium in 30 mm sterile culture dishes and allowed to disperse for 5 min. Suspensions were then divided into 3 treatment groups, each in a 30 mm sterile dishes, and treated with nothing (Control) or with calcitonin. As in the CTC experiments, salmon calcitonin was used at a final concentration of 5 ng/ml and human calcitonin at 200 ng/ml. Each suspension was overlaid with autoclaved liquid paraffin and incubated for 40 min at 37° C. in an atmosphere of 5% O2, 5% CO2, 90% N2.
Mature female TO mice were induced to superovulate by intraperitoneal injections of 7.5 IU equine chorionic gonadotrophin and approximately 50 hr later with 5 IU human chorionic gonadotrophin (hCG). Approximately 15 hr post-hCG, oviducts were removed and cumulus masses containing the oocytes were released into medium covered with liquid paraffin. Preincubated sperm suspensions were diluted ^˜10 fold into medium of the same composition used for initial incubation (i.e., without or with calcitonin); 400 μl of diluted suspension were transferred to culture dishes, covered with liquid paraffin and oocytes were added. […]
Oocytes were stained with 0.75% aceto orcein, mounted and assessed (Fraser, 1993). […]

Setting [7] is: pertussis toxin at 100 ng/ml, 40 min.

Consider `NC(=O)[C@@H]1CCCN1C(=O)[C@H](CCC(=O)O)NC(=O)[C@@H]1CCC(=O)N1` [FPP, pyroglutamylglutamylprolineamide] ([pGlu]-Glu-Pro-NH2), for which, in assay [1] (100 nM, P<0.01, n=3, positive control), the “incidence of spontaneously acrosome-reacted sperm vs untreated control” value is “significantly lower incidence”. Also, the “sperm motility vs untreated controls” value in assay [2] was “more active motility”. Moreover, the “human sperm fertilizing ability” value in assay [3] was “stimulate human sperm fertilizing ability”. In addition, the “proportion of F pattern cells (uncapacitated, non-fertilizing) vs untreated” value in assay [4] (100 nM) was “significantly lower proportion”. The “proportion of B pattern cells (capacitated, potentially fertilizing) vs untreated” value (“proportion of B pattern cells … vs untreated” for short) in assay [4] (100 nM, P<0.01, positive control) is “significantly higher proportion”.
Turning to calcitonin, the “sperm motility vs untreated controls” value in assay [2] was “more active motility”.
As to pertussis toxin, in assay [1] (setting [7]), the “effect on the response (inhibition of spontaneous acrosome loss) to 5 ng/ml salmon calcitonin” value was “abolished the responses” and the “effect on the response (inhibition of spontaneous acrosome loss) to 100 nM FPP” value is on record as “abolished the responses”.
Consider salmon calcitonin, for which the “incidence of spontaneously acrosome-reacted sperm vs untreated control” value in assay [1] (5 ng/ml, P<0.01, n=3) is “significantly lower incidence”. Moreover, the “effect on human sperm motility” value in assay [5] is recorded as “negative effect”. For the same compound, the “fertilized oocytes obtained vs untreated control sperm” value in assay [6] (5 ng/ml, P<0.025, n=4) is reported as “significantly more fertilized oocytes”. Also, in assay [4] (5 ng/ml), the “proportion of F pattern cells (uncapacitated, non-fertilizing) vs untreated” value is “significantly lower proportion”. Moreover, the “proportion of B pattern cells … vs untreated” value in assay [4] (5 ng/ml, P<0.01, n=3) is on record as “significantly higher proportion”.
With “human calcitonin: 32-amino acid hypocalcemic hormone of human origin (CGNLSTCMLGTYTQDFNKFHTFPQTAIGVGAP-NH2; disulfide 1-7; ends not checked; UniProt P01258 85-116, looked up)”, the “effect on human sperm motility” value in assay [5] is reported as “not”. For the same compound, the “fertilized oocytes obtained vs untreated control sperm” value in assay [6] (200 ng/ml, P<0.05, n=4) was “significantly more fertilized oocytes”. For the same compound, the “proportion of F pattern cells (uncapacitated, non-fertilizing) vs untreated” value in assay [4] (20 ng/ml) and in assay [4] (200 ng/ml) was “significantly lower proportion” in each case. The “proportion of B pattern cells … vs untreated” value is reported as “significantly higher proportion” in assay [4] (20 ng/ml, P<0.025, n=2) and “significantly higher proportion” in assay [4] (200 ng/ml, P<0.01, n=3).
